Measurements reported in publication PMC6407913, “DREADD Agonist 21 Is an Effective Agonist for Muscarinic-Based DREADDs in Vitro and in Vivo” (ACS Pharmacology & Translational Science, 2018).
Several values for one entry are separate records, joined by “and”; a condition that tells them apart may be missing. Identical values can stand only once. Like-named read-outs stand apart in the source and are kept apart here.

What was measured:
plasma protein binding = assay type: in vitro ADME
[1] = test system: 318 nonolfactory human GPCRs; assay type: cell-based; conditions: for FOLD OVER BASAL: C21 5 µM
[2] = biological target: T1, 318 nonolfactory human GPCRs (Homo sapiens, UniProt Q9Y5N1); assay type: cell-based; conditions: HRH3; C21 5 µM
T1 construct: expressed in transfected cells; host or cells: HTLA cells, transient

[3] = biological target: T2, 318 nonolfactory human GPCRs (Homo sapiens, UniProt P51684); assay type: cell-based; conditions: CCR6; C21 5 µM
T2 construct: expressed in transfected cells; host or cells: HTLA cells, transient

[4] = biological target: T3, 318 nonolfactory human GPCRs (Homo sapiens, UniProt Q15391); assay type: cell-based; conditions: P2RY14; C21 5 µM
T3 construct: expressed in transfected cells; host or cells: HTLA cells, transient

[5] = biological target: T4, 318 nonolfactory human GPCRs (Homo sapiens, UniProt P24530); assay type: cell-based; conditions: EDNRB; C21 5 µM
T4 construct: expressed in transfected cells; host or cells: HTLA cells, transient

[6] = biological target: T5, 318 nonolfactory human GPCRs (Homo sapiens, UniProt Q9NPC1); assay type: cell-based; conditions: LTB4R2B; C21 5 µM
T5 construct: expressed in transfected cells; host or cells: HTLA cells, transient

[7] = biological target: T6, 318 nonolfactory human GPCRs (Homo sapiens, UniProt Q86SQ4); assay type: cell-based; conditions: GPR126; C21 5 µM
T6 construct: expressed in transfected cells; host or cells: HTLA cells, transient

[8] = biological target: T7, 318 nonolfactory human GPCRs (Homo sapiens, UniProt Q9UKP6); assay type: cell-based; conditions: UTS2R; C21 5 µM
T7 construct: expressed in transfected cells; host or cells: HTLA cells, transient

[9] = biological target: T8, 318 nonolfactory human GPCRs (Homo sapiens, UniProt O14842); assay type: cell-based; conditions: FFA1; C21 5 µM
T8 construct: expressed in transfected cells; host or cells: HTLA cells, transient

[10] = biological target: T9, 318 nonolfactory human GPCRs (Homo sapiens, UniProt Q9H1Y3); assay type: cell-based; conditions: OPN3; C21 5 µM
T9 construct: expressed in transfected cells; host or cells: HTLA cells, transient

[11] = biological target: T10, 318 nonolfactory human GPCRs (Homo sapiens, UniProt P47901); assay type: cell-based; conditions: AVPR1B; C21 5 µM
T10 construct: expressed in transfected cells; host or cells: HTLA cells, transient

[12] = biological target: T11, 318 nonolfactory human GPCRs (Homo sapiens, UniProt Q9H3N8); assay type: cell-based; conditions: HRH4; C21 5 µM
T11 construct: expressed in transfected cells; host or cells: HTLA cells, transient

[13] = biological target: 318 nonolfactory human GPCRs (Homo sapiens, UniProt Q99500); assay type: cell-based; conditions: S1PR3; C21 5 µM
[14] = biological target: T12, 318 nonolfactory human GPCRs (Homo sapiens, UniProt P43115); assay type: cell-based; conditions: PTGER3; C21 5 µM
T12 construct: expressed in transfected cells; host or cells: HTLA cells, transient

[15] = biological target: T13, 318 nonolfactory human GPCRs (Homo sapiens, UniProt Q9BZJ7); assay type: cell-based; conditions: GPR62; C21 5 µM
T13 construct: expressed in transfected cells; host or cells: HTLA cells, transient

[16] = biological target: 318 nonolfactory human GPCRs (Homo sapiens, UniProt P47872); assay type: cell-based; conditions: SCTR; C21 5 µM
[17] = biological target: T14, 318 nonolfactory human GPCRs (Homo sapiens, UniProt P28222); assay type: cell-based; conditions: HTR1B; C21 5 µM
T14 construct: expressed in transfected cells; host or cells: HTLA cells, transient

[18] = biological target: T15, 318 nonolfactory human GPCRs (Homo sapiens, UniProt P30518); assay type: cell-based; conditions: AVPR2; C21 5 µM
T15 construct: expressed in transfected cells; host or cells: HTLA cells, transient

[19] = biological target: 318 nonolfactory human GPCRs (Homo sapiens, UniProt P25103); assay type: cell-based; conditions: TACR1; C21 5 µM
[20] = biological target: T16, 318 nonolfactory human GPCRs (Homo sapiens, UniProt Q8NGU9); assay type: cell-based; conditions: GPR150; C21 5 µM
T16 construct: expressed in transfected cells; host or cells: HTLA cells, transient

[21] = biological target: T17, 318 nonolfactory human GPCRs (Homo sapiens, UniProt Q8NFN8); assay type: cell-based; conditions: GPR156; C21 5 µM
T17 construct: expressed in transfected cells; host or cells: HTLA cells, transient

[22] = biological target: 318 nonolfactory human GPCRs (Homo sapiens, UniProt P61073); assay type: cell-based; conditions: CXCR4; C21 5 µM
[23] = biological target: 318 nonolfactory human GPCRs (Homo sapiens, UniProt P25090); assay type: cell-based; conditions: FPR2; C21 5 µM
[24] = biological target: 318 nonolfactory human GPCRs (Homo sapiens, UniProt Q9UPC5); assay type: cell-based; conditions: GPR34; C21 5 µM
[25] = biological target: T18, 318 nonolfactory human GPCRs (Homo sapiens, UniProt Q8TDV2); assay type: cell-based; conditions: GPR148; C21 5 µM
T18 construct: expressed in transfected cells; host or cells: HTLA cells, transient

[26] = biological target: 318 nonolfactory human GPCRs (Homo sapiens, UniProt P48546); assay type: cell-based; conditions: GIPR; C21 5 µM
[27] = biological target: T19, 318 nonolfactory human GPCRs (Homo sapiens, UniProt P47871); assay type: cell-based; conditions: GCGR; C21 5 µM
T19 construct: expressed in transfected cells; host or cells: HTLA cells, transient

[28] = biological target: T20, 318 nonolfactory human GPCRs (Homo sapiens, UniProt P21452); assay type: cell-based; conditions: TACR2; C21 5 µM
T20 construct: expressed in transfected cells; host or cells: HTLA cells, transient

[29] = biological target: T21, 318 nonolfactory human GPCRs (Homo sapiens, UniProt Q9Y5Y3); assay type: cell-based; conditions: GPR45; C21 5 µM
T21 construct: expressed in transfected cells; host or cells: HTLA cells, transient

[30] = biological target: 318 nonolfactory human GPCRs (Homo sapiens, UniProt P25025); assay type: cell-based; conditions: CXCR2; C21 5 µM
[31] = biological target: T22, 318 nonolfactory human GPCRs (Homo sapiens, UniProt P08908); assay type: cell-based; conditions: HTR1A; C21 5 µM
T22 construct: expressed in transfected cells; host or cells: HTLA cells, transient

[32] = test system: hM4Di expressed in PVH SIM1 neurons; assay: food intake, hM4Di in PVH SIM1 neurons (Sim1-Cre mice)

T3 sequence (Q15391 whole entry): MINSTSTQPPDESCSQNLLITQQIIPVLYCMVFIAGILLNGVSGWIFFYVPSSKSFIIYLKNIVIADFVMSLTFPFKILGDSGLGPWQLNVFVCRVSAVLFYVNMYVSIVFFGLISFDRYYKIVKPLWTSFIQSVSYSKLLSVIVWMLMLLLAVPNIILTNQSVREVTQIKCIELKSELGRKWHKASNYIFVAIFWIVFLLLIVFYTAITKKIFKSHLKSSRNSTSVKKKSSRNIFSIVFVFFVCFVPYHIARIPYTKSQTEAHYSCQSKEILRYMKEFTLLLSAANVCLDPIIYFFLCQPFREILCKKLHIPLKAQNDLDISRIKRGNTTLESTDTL
Sequence of 318 nonolfactory human GPCRs (Homo sapiens, UniProt P61073) (P61073 whole entry): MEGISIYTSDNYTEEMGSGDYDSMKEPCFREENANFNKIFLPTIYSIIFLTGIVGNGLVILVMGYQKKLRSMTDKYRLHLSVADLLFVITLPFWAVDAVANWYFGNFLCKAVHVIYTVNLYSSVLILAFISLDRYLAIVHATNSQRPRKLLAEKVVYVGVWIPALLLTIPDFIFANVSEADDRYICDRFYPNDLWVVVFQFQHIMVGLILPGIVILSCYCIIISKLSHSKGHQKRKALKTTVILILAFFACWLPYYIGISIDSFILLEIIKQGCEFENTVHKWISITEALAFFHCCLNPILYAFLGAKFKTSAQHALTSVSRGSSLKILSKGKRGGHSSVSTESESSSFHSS
Sequence of 318 nonolfactory human GPCRs (Homo sapiens, UniProt Q9UPC5) (Q9UPC5 whole entry): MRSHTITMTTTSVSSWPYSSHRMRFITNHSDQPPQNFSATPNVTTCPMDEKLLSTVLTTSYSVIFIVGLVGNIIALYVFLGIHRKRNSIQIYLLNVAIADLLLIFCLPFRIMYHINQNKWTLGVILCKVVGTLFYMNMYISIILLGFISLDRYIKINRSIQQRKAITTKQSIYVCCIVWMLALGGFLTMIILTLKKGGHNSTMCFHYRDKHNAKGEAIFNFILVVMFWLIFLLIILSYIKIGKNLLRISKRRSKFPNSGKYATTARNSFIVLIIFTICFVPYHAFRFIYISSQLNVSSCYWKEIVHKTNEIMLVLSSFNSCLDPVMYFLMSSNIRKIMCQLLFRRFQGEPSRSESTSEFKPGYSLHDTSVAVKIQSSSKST
T19 sequence (P47871 26-477): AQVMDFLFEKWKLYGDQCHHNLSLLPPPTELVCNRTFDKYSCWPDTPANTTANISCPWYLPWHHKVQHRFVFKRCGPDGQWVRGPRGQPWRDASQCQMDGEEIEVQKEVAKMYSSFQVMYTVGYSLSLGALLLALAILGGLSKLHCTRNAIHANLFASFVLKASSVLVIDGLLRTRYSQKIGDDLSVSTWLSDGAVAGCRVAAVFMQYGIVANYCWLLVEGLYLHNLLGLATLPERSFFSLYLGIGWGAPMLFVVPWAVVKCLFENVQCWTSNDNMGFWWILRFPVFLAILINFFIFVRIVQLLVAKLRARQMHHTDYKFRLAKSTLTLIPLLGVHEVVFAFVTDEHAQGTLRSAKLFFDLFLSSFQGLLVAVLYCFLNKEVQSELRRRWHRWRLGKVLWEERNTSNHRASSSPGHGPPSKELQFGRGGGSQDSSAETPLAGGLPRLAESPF
T10 sequence (P47901 whole entry): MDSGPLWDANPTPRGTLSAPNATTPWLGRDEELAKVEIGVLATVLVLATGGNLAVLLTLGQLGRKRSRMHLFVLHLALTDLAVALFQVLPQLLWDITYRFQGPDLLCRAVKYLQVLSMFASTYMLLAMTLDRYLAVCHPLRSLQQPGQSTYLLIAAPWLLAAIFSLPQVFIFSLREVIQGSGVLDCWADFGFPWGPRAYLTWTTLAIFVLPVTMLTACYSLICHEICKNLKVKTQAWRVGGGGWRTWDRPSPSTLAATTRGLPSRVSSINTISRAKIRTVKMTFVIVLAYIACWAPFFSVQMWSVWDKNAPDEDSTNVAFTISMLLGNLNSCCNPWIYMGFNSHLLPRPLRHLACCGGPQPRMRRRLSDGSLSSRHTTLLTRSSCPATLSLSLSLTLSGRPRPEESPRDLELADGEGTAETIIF
Sequence of 318 nonolfactory human GPCRs (Homo sapiens, UniProt Q99500) (Q99500 whole entry): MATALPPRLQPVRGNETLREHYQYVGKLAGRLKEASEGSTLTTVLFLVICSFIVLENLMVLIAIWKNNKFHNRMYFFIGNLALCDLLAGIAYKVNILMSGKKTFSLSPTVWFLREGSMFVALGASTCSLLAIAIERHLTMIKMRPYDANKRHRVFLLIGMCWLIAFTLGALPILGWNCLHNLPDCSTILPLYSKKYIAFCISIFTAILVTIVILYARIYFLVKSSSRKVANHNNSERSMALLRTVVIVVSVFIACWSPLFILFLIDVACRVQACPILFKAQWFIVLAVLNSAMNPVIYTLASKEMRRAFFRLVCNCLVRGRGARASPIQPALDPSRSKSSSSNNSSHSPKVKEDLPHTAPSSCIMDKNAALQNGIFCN
T9 sequence (Q9H1Y3 whole entry): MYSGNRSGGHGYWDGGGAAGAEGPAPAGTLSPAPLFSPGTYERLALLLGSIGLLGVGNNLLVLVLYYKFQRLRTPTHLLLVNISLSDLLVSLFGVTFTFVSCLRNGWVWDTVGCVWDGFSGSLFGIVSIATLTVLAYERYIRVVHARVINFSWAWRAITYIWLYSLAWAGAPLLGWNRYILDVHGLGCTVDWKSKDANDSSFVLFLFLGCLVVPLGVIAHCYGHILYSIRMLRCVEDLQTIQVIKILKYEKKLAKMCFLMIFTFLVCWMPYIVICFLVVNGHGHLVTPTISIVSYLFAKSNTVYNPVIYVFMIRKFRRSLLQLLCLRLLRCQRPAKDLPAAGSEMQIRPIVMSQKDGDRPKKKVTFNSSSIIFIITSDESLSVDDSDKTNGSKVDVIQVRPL
T12 sequence (P43115 whole entry): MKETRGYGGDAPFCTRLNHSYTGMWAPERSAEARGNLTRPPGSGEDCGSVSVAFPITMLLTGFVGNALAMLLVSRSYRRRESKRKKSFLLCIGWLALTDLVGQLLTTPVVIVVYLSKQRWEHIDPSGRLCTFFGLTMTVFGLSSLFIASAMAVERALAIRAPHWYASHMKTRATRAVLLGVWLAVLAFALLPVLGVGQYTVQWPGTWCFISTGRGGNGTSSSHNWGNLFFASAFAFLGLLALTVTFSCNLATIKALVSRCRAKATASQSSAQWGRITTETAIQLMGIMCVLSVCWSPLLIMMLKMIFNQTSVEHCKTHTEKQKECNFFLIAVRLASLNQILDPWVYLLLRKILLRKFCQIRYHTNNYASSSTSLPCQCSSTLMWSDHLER
T1 sequence (Q9Y5N1 whole entry): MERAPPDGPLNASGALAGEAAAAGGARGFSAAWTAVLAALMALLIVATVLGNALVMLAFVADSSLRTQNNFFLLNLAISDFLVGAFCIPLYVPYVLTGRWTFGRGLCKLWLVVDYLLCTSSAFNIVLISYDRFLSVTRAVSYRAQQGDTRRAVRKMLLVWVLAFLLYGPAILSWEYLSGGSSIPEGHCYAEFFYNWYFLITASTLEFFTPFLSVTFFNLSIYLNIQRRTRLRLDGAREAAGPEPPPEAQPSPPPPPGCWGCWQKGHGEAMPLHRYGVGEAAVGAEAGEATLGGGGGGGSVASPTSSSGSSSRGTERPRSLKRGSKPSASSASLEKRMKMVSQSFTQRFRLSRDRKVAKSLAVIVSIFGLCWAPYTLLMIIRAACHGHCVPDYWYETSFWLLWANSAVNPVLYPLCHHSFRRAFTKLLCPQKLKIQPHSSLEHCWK
T11 sequence (Q9H3N8 whole entry): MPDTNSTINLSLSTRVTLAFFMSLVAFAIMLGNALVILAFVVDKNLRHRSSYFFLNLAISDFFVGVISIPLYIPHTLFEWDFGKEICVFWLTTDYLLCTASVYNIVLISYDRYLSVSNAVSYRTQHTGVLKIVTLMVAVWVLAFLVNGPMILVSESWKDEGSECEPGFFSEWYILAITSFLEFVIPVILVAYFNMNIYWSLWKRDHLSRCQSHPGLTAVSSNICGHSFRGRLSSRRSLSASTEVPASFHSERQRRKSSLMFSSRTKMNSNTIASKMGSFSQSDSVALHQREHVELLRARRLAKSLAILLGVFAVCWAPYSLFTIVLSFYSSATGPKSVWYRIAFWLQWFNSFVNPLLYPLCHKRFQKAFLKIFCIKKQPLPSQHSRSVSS
T5 sequence (Q9NPC1 whole entry): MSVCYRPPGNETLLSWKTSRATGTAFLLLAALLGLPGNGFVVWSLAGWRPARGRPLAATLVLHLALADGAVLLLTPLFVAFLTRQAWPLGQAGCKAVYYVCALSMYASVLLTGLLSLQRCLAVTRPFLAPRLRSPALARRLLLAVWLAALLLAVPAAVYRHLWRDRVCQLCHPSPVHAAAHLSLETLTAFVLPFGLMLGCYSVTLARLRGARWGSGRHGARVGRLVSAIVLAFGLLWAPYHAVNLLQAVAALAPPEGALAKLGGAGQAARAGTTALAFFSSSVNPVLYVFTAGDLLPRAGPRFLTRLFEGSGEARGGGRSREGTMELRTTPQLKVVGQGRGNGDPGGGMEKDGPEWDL
Sequence of 318 nonolfactory human GPCRs (Homo sapiens, UniProt P25103) (P25103 whole entry): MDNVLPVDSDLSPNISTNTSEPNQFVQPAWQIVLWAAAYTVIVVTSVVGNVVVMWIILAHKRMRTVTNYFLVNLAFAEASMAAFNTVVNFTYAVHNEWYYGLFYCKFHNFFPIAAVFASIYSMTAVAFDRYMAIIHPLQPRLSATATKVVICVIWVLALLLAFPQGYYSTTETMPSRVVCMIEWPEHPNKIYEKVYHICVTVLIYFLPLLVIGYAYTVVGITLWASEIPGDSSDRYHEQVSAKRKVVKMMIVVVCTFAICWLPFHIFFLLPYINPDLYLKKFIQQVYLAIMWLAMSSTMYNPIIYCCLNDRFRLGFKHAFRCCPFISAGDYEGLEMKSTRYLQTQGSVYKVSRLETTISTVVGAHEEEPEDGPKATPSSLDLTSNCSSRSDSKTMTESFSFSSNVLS

Question: For c1ccc2c(c1)N=C(N1CCNCC1)c1ccccc1N2 [C21, 11-(1-piperazinyl)-5H-dibenzo[b,e][1,4]diazepine], which fraction unbound (plasma protein binding) is on record?
Answer: 0.049

Question: What about the “FOLD OVER BASAL” value ([1]; CALCRb) of the same compound?
Answer: 0.8 fold and 0.6 fold and 0.5 fold

Question: What about the “FOLD OVER BASAL” value ([1]; GAL2) of the same compound?
Answer: 1.2 fold and 0.9 fold and 1.3 fold

Question: And the “FOLD OVER BASAL” value ([1]; GAL3)?
Answer: 1.1 fold and 0.7 fold and 0.9 fold

Question: What about the “FOLD OVER BASAL” value ([1]; HCTR2) of the same compound?
Answer: 1.1 fold and 0.8 fold and 0.6 fold

Question: And the “FOLD OVER BASAL” value ([1]; PK1)?
Answer: 1.3 fold and 1.4 fold and 0.8 fold and 1.5 fold

Question: What about the “FOLD OVER BASAL” value ([1]; PRRP) of the same compound?
Answer: 1 fold and 0.9 fold and 0.6 fold

Question: What about the “agonist activity at GPCRome (fold of basal)” value ([1]; single concentration 5 μM, PRESTO-Tango, quadruplicate) of the same compound?
Answer: agonist activity only at M4-, D2-, and H4-histamine receptors

Question: What about the “FOLD OVER BASAL” value [2] of the same compound?
Answer: 1.3 fold and 0.9 fold and 0.8 fold

Question: And the “FOLD OVER BASAL” value [3]?
Answer: 1.1 fold and 1.2 fold and 1.7 fold

Question: What about the “FOLD OVER BASAL” value [4] of the same compound?
Answer: 0.9 fold and 0.7 fold and 1.1 fold and 0.8 fold

Question: And the “FOLD OVER BASAL” value [5]?
Answer: 0.8 fold and 1 fold and 0.5 fold and 0.7 fold

Question: What about the “FOLD OVER BASAL” value [6] of the same compound?
Answer: 1 fold and 0.9 fold and 1.1 fold and 1.2 fold

Question: What about the “FOLD OVER BASAL” value [7] of the same compound?
Answer: 0.3 fold and 0.4 fold

Question: What about the “FOLD OVER BASAL” value [8] of the same compound?
Answer: 0.8 fold and 0.9 fold and 1 fold

Question: And the “FOLD OVER BASAL” value [9]?
Answer: 0.4 fold and 0.7 fold and 0.8 fold

Question: What about the “FOLD OVER BASAL” value [10] of the same compound?
Answer: 1.1 fold and 0.7 fold and 0.9 fold and 0.6 fold

Question: What about the “FOLD OVER BASAL” value [11] of the same compound?
Answer: 0.4 fold and 0.6 fold and 0.7 fold

Question: What about the “FOLD OVER BASAL” value [12] of the same compound?
Answer: 6.3 fold and 4 fold and 5.7 fold and 3.8 fold

Question: What about the “FOLD OVER BASAL” value [13] of the same compound?
Answer: 0.9 fold and 0.8 fold and 1 fold

Question: And the “FOLD OVER BASAL” value [14]?
Answer: 0.7 fold and 1 fold and 0.5 fold and 0.9 fold

Question: What about the “FOLD OVER BASAL” value [15] of the same compound?
Answer: 0.8 fold and 0.5 fold and 0.9 fold

Question: What about the “FOLD OVER BASAL” value [16] of the same compound?
Answer: 0.9 fold and 1 fold

Question: What about the “FOLD OVER BASAL” value [17] of the same compound?
Answer: 0.7 fold and 0.8 fold and 0.9 fold

Question: What about the “FOLD OVER BASAL” value [18] of the same compound?
Answer: 1.1 fold and 1.2 fold

Question: And the “FOLD OVER BASAL” value [19]?
Answer: 1.1 fold and 0.8 fold and 0.9 fold

Question: And the “FOLD OVER BASAL” value [20]?
Answer: 1.6 fold and 1.5 fold and 1.7 fold

Question: What about the “FOLD OVER BASAL” value [21] of the same compound?
Answer: 1.1 fold and 0.9 fold and 1.4 fold

Question: What about the “FOLD OVER BASAL” value [22] of the same compound?
Answer: 0.7 fold and 1 fold and 0.9 fold

Question: What about the “FOLD OVER BASAL” value [23] of the same compound?
Answer: 1 fold and 1.1 fold and 0.9 fold

Question: And the “FOLD OVER BASAL” value [24]?
Answer: 1.2 fold and 1.1 fold and 1.4 fold

Question: And the “FOLD OVER BASAL” value [25]?
Answer: 0.9 fold and 0.6 fold and 0.5 fold and 1 fold

Question: What about the “FOLD OVER BASAL” value [26] of the same compound?
Answer: 0.3 fold and 0.4 fold

Question: And the “FOLD OVER BASAL” value [27]?
Answer: 0.3 fold and 0.2 fold and 0.4 fold

Question: What about the “FOLD OVER BASAL” value [28] of the same compound?
Answer: 0.7 fold and 0.9 fold and 0.6 fold and 1.1 fold

Question: What about the “FOLD OVER BASAL” value [29] of the same compound?
Answer: 0.8 fold and 0.6 fold and 1 fold

Question: What about the “FOLD OVER BASAL” value [30] of the same compound?
Answer: 0.9 fold and 1 fold

Question: What about the “FOLD OVER BASAL” value [31] of the same compound?
Answer: 0.5 fold and 0.4 fold and 0.3 fold

Question: And the “food intake, light cycle, sated mice” value ([32]; SIM1-Cre mice with AAV-DIO-hM4Di-mCherry, i.p.)?
Answer: substantially enhanced food consumption at comparable levels to CNO

Question: What about the “food intake in control mice” value ([32]; wildtype (non-Cre-expressing) littermates injected with AAV-DIO-hM4Di-mCherry) of the same compound?
Answer: neither C21 nor CNO ligand influenced food intake
